Drawing on US9433609B2, “Benzimidazole-imidazole derivatives” (Janssen Sciences Ireland UC, priority 2009, dated 2016), this text covers CC50 and EC50 for one compound.

A short description of series [1]: Counterscreen MT4-LTR-Luc. The series is classed as cell-based. Particulars: human. The text has this:
Counterscreen cell lines included a Huh-7 hepatoma cell line containing a human cytomegalovirus major immediate-early promoter-Luc construct (Huh7-CMV-Luc) and an MT4 T-cell line containing a long terminal repeat-Luc reporter (MT4-LTR-Luc).
In general terms: The purpose of a counterscreen is to sort out artefacts and off-target activity.

The test system of series [2] is HCV genotype 1b replicon with NS5A R30H. Nature of the series: Transient HCV 1b replicon assay, NS5A mutant R30H. The series is classed as cell-based. The settings on record: Hepatitis C virus, read-out: EC50 R30H. The text has this:
In a transient set-up, a Huh-7 lunet hepatoma cell line was transiently transfected with an autonomously replicating RNA encoding a bi-cistronic expression construct. This construct comprises a firefly luciferase reporter gene preceding the NS3-NS5B subgenomic region of HCV (genotype 1a H77 or 1b Con1). Translation of the HCV subgenomic region is mediated by an internal ribosome entry site of encephalomyocarditis virus. The construct is furthermore flanked by 5′ and 3′ untranslated regions of HCV (genotype 1a H77 or 1b Con 1, respectively), which allow for replication of the RNA.
In addition to the wild-type constructs, site-directed mutations were introduced into the transient HCV genotype 1b replicon in the gene encoding for the non-structural protein 5A (NS5A). More precisely, amino acid residues 28, 30, 31 and 93 in NS5A were independently altered.
Cells were plated in 384 well plates in the presence of test and control compounds, which were added in various concentrations. Following an incubation of two days, replication of the HCV subgenomic replicon RNA was measured by assaying luciferase activity (using standard luciferase assay substrates and reagents and a Perkin Elmer ViewLux™ ultraHTS microplate imager). […] The inhibitory activity of the compound was monitored, enabling a dose-response curve for each test compound. […]
In general terms: A replicon is a self-replicating genome or part of one, used to study replication in cells.

A word on the CC50: it is the concentration that lowers cell viability or growth by half. A low value points to greater toxicity to the cells. The term EC50 denotes the concentration giving half of the maximal effect. For the compound `COC(=O)N[C@H](C(=O)N1CCC[C@H]1c1ncc(-c2ccc(-c3ccc4nc([C@@H]5CCCN5C(=O)[C@@H](NC(=O)OC)C(C)C)[nH]c4c3)cc2)[nH]1)C(C)C` [Compound 1], the half-maximal cytotoxic concentration (CC50) in series [1] is greater than 984 nM. The EC50 in series [2] turned out to be 0.6 nM.
